According to the Kinase Knowledgebase extract (Sharma et al. 2016):

Target: ROCK2 (UniProt O75116)
Test: Inhibition of ROCK2 Kinase Activity

Chain of ROCK2 (O75116 whole entry, looked up): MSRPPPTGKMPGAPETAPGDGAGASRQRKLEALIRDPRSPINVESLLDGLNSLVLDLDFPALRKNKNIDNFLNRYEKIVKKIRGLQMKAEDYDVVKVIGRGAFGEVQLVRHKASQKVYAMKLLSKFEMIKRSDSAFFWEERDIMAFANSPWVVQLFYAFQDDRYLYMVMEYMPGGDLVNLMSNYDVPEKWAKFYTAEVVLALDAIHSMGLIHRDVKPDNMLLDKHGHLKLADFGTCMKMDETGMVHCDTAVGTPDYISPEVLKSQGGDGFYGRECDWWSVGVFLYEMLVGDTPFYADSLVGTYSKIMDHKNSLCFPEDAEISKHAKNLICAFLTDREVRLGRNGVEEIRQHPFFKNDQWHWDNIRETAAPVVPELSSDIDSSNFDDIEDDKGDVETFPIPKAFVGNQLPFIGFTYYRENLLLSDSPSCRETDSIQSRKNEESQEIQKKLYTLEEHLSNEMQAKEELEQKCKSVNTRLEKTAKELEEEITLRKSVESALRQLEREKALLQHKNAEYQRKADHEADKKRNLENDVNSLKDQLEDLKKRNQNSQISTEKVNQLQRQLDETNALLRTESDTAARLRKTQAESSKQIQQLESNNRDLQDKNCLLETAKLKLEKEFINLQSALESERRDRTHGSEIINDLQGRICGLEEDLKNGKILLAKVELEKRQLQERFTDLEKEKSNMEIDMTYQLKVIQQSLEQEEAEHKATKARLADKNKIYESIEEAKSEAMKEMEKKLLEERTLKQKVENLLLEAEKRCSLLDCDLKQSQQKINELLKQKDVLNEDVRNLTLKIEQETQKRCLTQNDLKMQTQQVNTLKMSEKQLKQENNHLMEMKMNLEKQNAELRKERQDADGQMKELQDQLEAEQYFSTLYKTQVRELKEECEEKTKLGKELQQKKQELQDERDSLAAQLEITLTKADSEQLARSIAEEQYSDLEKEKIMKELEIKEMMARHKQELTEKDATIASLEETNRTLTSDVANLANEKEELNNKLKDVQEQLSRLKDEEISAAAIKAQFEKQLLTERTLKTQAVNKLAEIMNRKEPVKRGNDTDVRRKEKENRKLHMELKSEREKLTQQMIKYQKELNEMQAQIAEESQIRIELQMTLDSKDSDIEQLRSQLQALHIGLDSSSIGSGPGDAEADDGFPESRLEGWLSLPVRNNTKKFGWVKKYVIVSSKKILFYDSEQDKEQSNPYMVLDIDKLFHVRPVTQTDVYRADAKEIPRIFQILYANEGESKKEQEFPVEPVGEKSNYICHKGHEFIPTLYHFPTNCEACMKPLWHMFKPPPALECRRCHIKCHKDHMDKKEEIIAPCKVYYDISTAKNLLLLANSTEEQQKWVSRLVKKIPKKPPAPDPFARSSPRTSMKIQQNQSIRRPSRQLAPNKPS

| Compound | Ki [nM] |
| --- | --- |
| CC(C)(N)c1cnc(-c2ccc3[nH]ncc3c2)c(Cl)c1 | 86 |
| CCC(N)(CC)c1ccc(-c2ccc3[nH]ncc3c2OC(F)F)cc1 | 13 |
| CC(C)(N)c1ccc(-c2ccc3[nH]ncc3c2N2CCCCC2)cc1 | 14 |
| CC(C)(N)c1ccc(-c2ccc3[nH]ncc3c2OC2CC2)nc1 | 28 |
| CCC(N)(CC)c1ccc(-c2ccc3[nH]ncc3c2OC)nc1 | 38 |
| CC(C)(N)c1ccc(-c2ccc3[nH]ncc3c2-c2cn[nH]c2)nc1 | 56 |
| CCOc1c(-c2ccc(C(N)(CC)CC)cn2)ccc2[nH]ncc12 | 35 |
| NCc1ccc(-c2ccc3[nH]ncc3c2[N+](=O)[O-])cc1 | 55 |
| CC(C)(N)c1ccc(-c2ccc3[nH]ncc3c2)nc1 | 20 |
| CC(C)Oc1c(-c2ccc(C(C)(C)N)cn2)ccc2[nH]ncc12 | 84 |
| CC(C)(N)c1ccc(-c2ccc3[nH]ncc3c2N2CCCC2)cc1 | 14 |
| CN(C)c1c(-c2ccc(C3(N)CCCC3)cc2)ccc2[nH]ncc12 | 14 |
| CC(C)(N)c1ccc(-c2ccc3[nH]ncc3c2O)nc1 | 55 |
| CC(C)(N)c1ccc(-c2ccc3[nH]ncc3c2OC(F)F)nc1 | 6.9 |
| CC(C)(N)c1ccc(-c2ccc3[nH]ncc3c2[N+](=O)[O-])nc1 | 199 |
| CC(C)(N)c1ccc(-c2ccc3[nH]ncc3c2N2CCOCC2)cc1 | 211 |
| C=Cc1c(-c2ccc(C(C)(C)N)cn2)ccc2[nH]ncc12 | 17 |

| Compound | Ki [nM] |
| --- | --- |
| CN(C)c1c(-c2ccc(CN)cc2)ccc2[nH]ncc12 | 29 |
| CC(C)(N)c1ccc(-c2ccc3[nH]ncc3c2CCO)nc1 | 234 |
| CCC(N)(CC)c1ccc(-c2ccc3[nH]ncc3c2OC2CC2)nc1 | 34 |
| CCC(N)(CC)c1ccc(-c2ccc3[nH]ncc3c2N)cc1 | 38 |
| CCC(N)(CC)c1ccc(-c2ccc3[nH]ncc3c2N(C)C)cc1 | 23 |
| CC(C)(N)c1ccc(-c2ccc3[nH]ncc3c2-c2ccno2)cc1 | 6.4 |
| CC(C)(N)c1ccc(-c2ccc3[nH]ncc3c2-c2cnco2)cc1 | 2.6 |
| CCc1c(-c2ccc(C(C)(C)N)cn2)ccc2[nH]ncc12 | 15 |
| NCc1ccc(-c2ccc3[nH]ncc3c2N)cc1 | 61 |
| CCOc1c(-c2ccc(C(C)(C)N)cn2)ccc2[nH]ncc12 | 45 |
| COc1c(-c2ccc(C3(N)CCCC3)cn2)ccc2[nH]ncc12 | 27 |
| CC(N)c1ccc(-c2ccc3[nH]ncc3c2N(C)C)cc1 (stereo not drawn) | 27 |
| Nc1c(-c2ccc(C3(N)CCCC3)cc2)ccc2[nH]ncc12 | 26 |
| CCCOc1c(-c2ccc(C(C)(C)N)cn2)ccc2[nH]ncc12 | 39 |
| CC(C)(N)c1ccc(-c2ccc3[nH]ncc3c2C2CC2)nc1 | 2.7 |
| COc1c(-c2ccc(C(C)(C)N)cn2)ccc2[nH]ncc12 | 27 |
| CC(C)(N)c1ccc(-c2ccc3[nH]ncc3c2OCC2CC2)nc1 | 146 |

Now from value to molecule:

| Ki [nM] | Compound |
| --- | --- |
| 7.5 | CC(C)(N)c1ccc(-c2ccc3[nH]nc(C=NO)c3c2)cc1 |
| 19 | CC(C)(N)c1ccc(-c2ccc3[nH]ncc3c2)cc1 |
| 15 | CNc1c(-c2ccc(C(C)(C)N)cc2)ccc2[nH]ncc12 |
| 134 | CC(C)(N)c1ccc(-c2ccc3[nH]nc(C(N)=O)c3c2)cc1 |
| 4.4 | CC(C)(N)c1ccc(-c2ccc3[nH]ncc3c2-c2cn[nH]c2)cc1 |
| 47 | CC(C)(N)c1ccc(-c2ccc3[nH]ncc3c2CCO)cc1 |
| 17 | CCOc1c(-c2ccc(C(C)(C)N)cc2)ccc2[nH]ncc12 |
| 260 | CC(C)(N)c1ccc(-c2ccc3[nH]ncc3c2NCc2ccccc2)cc1 |
| 97 | COC(=O)c1n[nH]c2ccc(-c3ccc(C(C)(C)N)cc3)cc12 |
| 35 | CC(C)(N)c1ccc(-c2ccc3[nH]ncc3c2C#N)cc1 |
| 45 | CC(C)(N)c1ccc(-c2ccc3[nH]ncc3c2-c2ccncc2)cc1 |
| 103 | CC(C)(N)c1ccc(-c2ccc3[nH]nc(C#N)c3c2)cc1 |
| 29 | CC(C)(N)c1ccc(-c2ccc3[nH]ncc3c2O)cc1 |
| 28 | CC(C)(N)c1ccc(-c2ccc3[nH]ncc3c2[N+](=O)[O-])cc1 |
| 139 | CC(C)(N)c1ccc(-c2ccc3[nH]ncc3c2CO)cc1 |
| 26 | CC(C)(N)c1ccc(-c2ccc3[nH]ncc3c2OCCF)cc1 |
| 142 | CC(C)(N)c1ccc(-c2ccc3[nH]nc(CO)c3c2)cc1 |

| Ki [nM] | Compound |
| --- | --- |
| 294 | CC(O)c1c(-c2ccc(C(C)(C)N)cc2)ccc2[nH]ncc12 (stereo not drawn) |
| 144 | CC(C)(N)c1ccc(-c2ccc3[nH]nc(N)c3c2)cc1 |
| 11 | CC(C)(N)c1ccc(-c2ccc3[nH]ncc3c2-c2cc[nH]n2)cc1 |
| 13 | CCCCOc1c(-c2ccc(C(C)(C)N)cc2)ccc2[nH]ncc12 |
| 23 | C=CCOc1c(-c2ccc(C(C)(C)N)cc2)ccc2[nH]ncc12 |
| 3.6 | CC(C)(N)c1ccc(-c2ccc3[nH]ncc3c2OC(F)F)cc1 |
| 12 | CC(C)(N)c1ccc(-c2ccc3[nH]ncc3c2-n2cccc2)cc1 |
| 16 | CN(C)c1c(-c2ccc(C(C)(C)N)cc2)ccc2[nH]ncc12 |
| 614 | CCN(CC)c1c(-c2ccc(C(C)(C)N)cc2)ccc2[nH]ncc12 |
| 56 | C=C(C)c1n[nH]c2ccc(-c3ccc(C(C)(C)N)cc3)cc12 |
| 126 | CC(C)(N)c1ccc(-c2ccc3[nH]ncc3c2-c2cccnc2)cc1 |
| 241 | CC(C)(N)c1ccc(-c2ccc3[nH]ncc3c2-c2ccccn2)cc1 |
| 33 | CC(C)Oc1c(-c2ccc(C(C)(C)N)cc2)ccc2[nH]ncc12 |
| 14 | CCCOc1c(-c2ccc(C(C)(C)N)cc2)ccc2[nH]ncc12 |
| 13 | COc1c(-c2ccc(C(C)(C)N)cc2)ccc2[nH]ncc12 |
| 44 | CC(C)(N)c1ccc(-c2ccc3[nH]ncc3c2N)cc1 |
| 31 | CC(C)(N)c1ccc(-c2ccc3[nH]ncc3c2OCC(F)(F)F)cc1 |
